This is an account of results in patent publication EP1065215A1 (Boehringer Ingelheim International GmbH, priority 1999, dated 2001).

Holding throughout (assay): Displacement of [3H]AMPA binding on membranes of transfected HEK293 cells
Common to all, as to settings: mean ± S.E.; for Hill slope: displacement of [3H]AMPA binding, Prism software

The target of one assay is T1, GluR1 (1-24) (Homo sapiens, UniProt P42261).
T1 construct: expressed in transfected cells; host or cells: HEK293, plasmid pHGluR1/pcDNA3
As for the experimental part:
(§1) In order to examine the pharmacological identity of the stably expressed recombinant receptors, competitive binding studies were performed.
(§2) The binding studies were carried out as outlined previously (Keinänen et al., 1990; Fletcher et al., 1995). […] The pellets were resuspended in 50 mM Tris-HCl (pH 7.5) and repeated the homogenization and centrifugation. […] The cell membranes were incubated with the radioligand for 60 minutes on ice, and subsequently collected by rapid filtration through GF/C filters. […] The filters were washed rapidly with cold assay buffer. The radioactivity retained in the filters was measured by liquid scintillation counting.

A further assay deals with T2, GluR3 (5-42) (Homo sapiens, UniProt P42263).
T2 construct: expressed in transfected cells; host or cells: HEK293, plasmid pHGluR3/pcDNA3
As for the experimental part:
as §1, §2

For another assay, the target named is T3, GluR4 (4-19) (Homo sapiens, UniProt P48058).
T3 construct: expressed in transfected cells; host or cells: HEK293, plasmid pHGluR4/pcDNA3
As for the experimental part: as §1, §2

Where [1] appears, read: displacement of [3H]AMPA, Cheng-Prusoff equation, 0.1 M KSCN, on ice.

T1 sequence (P42261 19-906 isoform P42261-2 limits assumed): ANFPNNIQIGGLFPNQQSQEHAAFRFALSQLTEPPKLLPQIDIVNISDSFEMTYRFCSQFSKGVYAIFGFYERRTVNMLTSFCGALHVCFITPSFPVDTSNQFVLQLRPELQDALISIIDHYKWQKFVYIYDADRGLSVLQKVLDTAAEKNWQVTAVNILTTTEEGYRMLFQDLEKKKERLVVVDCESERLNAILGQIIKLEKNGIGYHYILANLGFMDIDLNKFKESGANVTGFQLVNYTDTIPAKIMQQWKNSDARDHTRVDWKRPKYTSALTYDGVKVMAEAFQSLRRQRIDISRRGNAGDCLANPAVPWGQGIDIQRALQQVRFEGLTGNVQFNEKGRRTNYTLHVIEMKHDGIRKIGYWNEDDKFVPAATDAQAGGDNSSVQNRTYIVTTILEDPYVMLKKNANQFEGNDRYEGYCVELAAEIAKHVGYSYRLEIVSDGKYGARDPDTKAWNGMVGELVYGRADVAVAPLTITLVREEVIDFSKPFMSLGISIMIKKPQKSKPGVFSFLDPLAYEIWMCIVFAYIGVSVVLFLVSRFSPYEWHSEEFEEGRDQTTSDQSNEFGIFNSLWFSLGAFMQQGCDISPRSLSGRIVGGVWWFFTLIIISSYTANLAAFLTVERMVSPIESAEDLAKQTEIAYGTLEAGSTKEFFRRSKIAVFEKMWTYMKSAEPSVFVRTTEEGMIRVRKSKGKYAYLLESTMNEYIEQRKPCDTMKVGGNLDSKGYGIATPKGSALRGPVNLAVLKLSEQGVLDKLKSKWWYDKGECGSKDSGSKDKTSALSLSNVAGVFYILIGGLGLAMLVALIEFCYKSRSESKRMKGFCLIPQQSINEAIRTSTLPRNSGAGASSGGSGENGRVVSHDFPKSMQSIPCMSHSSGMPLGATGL
T2 sequence (P42263 29-894 isoform P42263-2 limits assumed): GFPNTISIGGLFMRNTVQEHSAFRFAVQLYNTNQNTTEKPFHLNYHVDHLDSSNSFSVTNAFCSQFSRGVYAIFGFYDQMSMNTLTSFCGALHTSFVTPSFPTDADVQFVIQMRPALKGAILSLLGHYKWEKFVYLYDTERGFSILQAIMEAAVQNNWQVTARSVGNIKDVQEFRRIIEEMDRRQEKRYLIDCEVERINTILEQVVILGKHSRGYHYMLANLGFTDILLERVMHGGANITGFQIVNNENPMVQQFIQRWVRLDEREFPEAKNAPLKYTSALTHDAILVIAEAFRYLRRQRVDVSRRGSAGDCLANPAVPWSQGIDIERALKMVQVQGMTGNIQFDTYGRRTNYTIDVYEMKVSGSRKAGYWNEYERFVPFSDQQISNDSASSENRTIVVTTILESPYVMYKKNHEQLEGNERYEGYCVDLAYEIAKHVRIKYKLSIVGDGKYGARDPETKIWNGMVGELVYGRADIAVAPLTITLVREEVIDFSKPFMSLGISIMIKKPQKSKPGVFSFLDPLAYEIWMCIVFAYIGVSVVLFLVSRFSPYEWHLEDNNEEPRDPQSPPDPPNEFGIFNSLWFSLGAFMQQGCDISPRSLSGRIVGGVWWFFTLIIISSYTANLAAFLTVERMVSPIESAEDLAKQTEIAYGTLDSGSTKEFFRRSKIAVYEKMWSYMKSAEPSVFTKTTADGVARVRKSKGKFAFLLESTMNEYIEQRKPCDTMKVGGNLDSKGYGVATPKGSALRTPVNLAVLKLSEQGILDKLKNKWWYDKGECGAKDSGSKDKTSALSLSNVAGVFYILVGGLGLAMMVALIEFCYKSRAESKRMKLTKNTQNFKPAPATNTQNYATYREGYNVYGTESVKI
T3 sequence (P48058 21-902): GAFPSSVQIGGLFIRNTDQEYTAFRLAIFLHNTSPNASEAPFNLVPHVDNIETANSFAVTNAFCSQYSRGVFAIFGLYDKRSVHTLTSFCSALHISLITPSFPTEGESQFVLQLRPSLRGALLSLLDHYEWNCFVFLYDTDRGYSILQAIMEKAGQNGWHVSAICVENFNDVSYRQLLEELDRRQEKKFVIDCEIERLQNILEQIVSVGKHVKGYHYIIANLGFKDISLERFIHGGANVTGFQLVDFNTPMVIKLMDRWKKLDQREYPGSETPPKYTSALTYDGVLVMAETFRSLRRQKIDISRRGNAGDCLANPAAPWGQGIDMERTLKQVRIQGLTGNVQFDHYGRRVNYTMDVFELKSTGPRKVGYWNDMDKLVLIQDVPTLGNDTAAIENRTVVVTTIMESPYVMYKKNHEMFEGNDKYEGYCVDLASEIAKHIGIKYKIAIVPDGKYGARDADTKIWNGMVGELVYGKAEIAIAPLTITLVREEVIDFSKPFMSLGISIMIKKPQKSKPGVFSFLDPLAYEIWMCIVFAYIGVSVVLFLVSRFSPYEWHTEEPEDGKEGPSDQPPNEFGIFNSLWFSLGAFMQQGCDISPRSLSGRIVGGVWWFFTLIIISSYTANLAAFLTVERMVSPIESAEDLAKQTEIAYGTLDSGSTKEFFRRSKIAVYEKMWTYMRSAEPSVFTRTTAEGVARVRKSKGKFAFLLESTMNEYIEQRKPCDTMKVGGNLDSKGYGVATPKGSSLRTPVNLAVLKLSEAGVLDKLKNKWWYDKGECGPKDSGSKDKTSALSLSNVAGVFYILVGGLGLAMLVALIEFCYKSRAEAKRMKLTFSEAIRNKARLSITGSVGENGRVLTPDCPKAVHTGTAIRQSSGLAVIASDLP

Consider `N#Cc1cc2[nH]c(=O)c(=O)[nH]c2cc1[N+](=O)[O-]` [CNQX], for which the Hill slope on GluR1 (1-24) was -1.00 ± 0.06; on GluR3 (5-42), -0.83 ± 0.06; on GluR4 (4-19), -0.86 ± 0.06.
Turning to `CN1Cc2c(S(=O)(=O)N(C)C)cc3c(c2C1)NC(=O)C3=NO` [NS257], the Hill slope is given as -0.85 ± 0.08 at GluR1 (1-24), -1.01 ± 0.22 at GluR3 (5-42) and -0.83 ± 0.03 on GluR4 (4-19). The inhibition constant (Ki) at GluR1 (1-24) (setting [1]) is 1.97 ± 0.148 µM; on GluR3 (5-42) (setting [1]) it was 0.967 ± 0.124 µM; at GluR4 (4-19) (setting [1]) it was 1.05 ± 0.078 µM.
